Experimental data: US20140128357A1, “METHODS OF PRODUCING AND USING BRASSINOSTEROIDS TO PROMOTE GROWTH, REPAIR AND MAINTENANCE OF SKELETAL MUSCLE AND SKIN” (Rutgers University, priority 2010, published 2014)
Like-named read-outs stand apart in the source and are kept apart here.

Tests used:
L6 rat myotubes [1] = assay: Protein synthesis, [3H]-phenylalanine incorporation in myotubes; type: cell-based; details: 10 μM; for Protein synthesis (% increase over control): 4 h
Experimental: (§1) In some aspects, cell culture experiments were carried out. Rat L6 skeletal muscle cell line CRL-1458 was obtained from ATCC (Manassas, Va.). Myoblasts were routinely maintained in Dulbecco's modified Eagle's medium (DMEM) containing 10% FBS and 0.1% penicillin-streptomycin at 37° C. and 5% CO2. Cells were subcultured into 24-well plates for protein synthesis, degradation, and cell viability studies and into 6-well plates for Western blot analyses (Greiner Bio One, Monroe, N.C.). Once cells reached 90% confluence, differentiation was induced by lowering the serum concentration to 2%, and medium was changed every 2 days. After 7-9 days of culture the myoblasts had fused into multinucleated myotubes (Mandel et al., Nature 251:618-620, 1974). NIH 3T3 murine embryonic fibroblast cell line (ATCC #CCL-92) was maintained in DMEM and 10% FBS at 37° C. in 5% CO2, and passaged every 3-4 days.
In various aspects, protein synthesis is measured to determine the effect of brassinosteroid on a particular protein. All known methods for measuring protein synthesis are included in the methods of the disclosure. In brassinosteroid dose response studies, fully differentiated myotubes were washed with serum-free DMEM and treated in triplicate with vehicle (0.1% ethanol), increasing concentrations of HB, or 6.5 nM of insulin-like growth factor-1 (IGF-1) as a positive control. Compounds were added to serum-free medium containing 0.5 μCi/mL [^3H]-phenylalanine and incubated for 4 h. For the HB time course study, fully differentiated myotubes were treated with 3 μM HB for 1-24 h using the same culture conditions. The incubation was stopped by placing cells on ice, discarding the medium, and washing the cells extensively with ice-cold PBS to remove the non-incorporated radiolabel. Proteins were precipitated with 5% trichloroacetic acid and dissolved in 0.5N NaOH (Montgomery et al., Methods Cell. Sci. 24:123-129, 2002). Specific radioactivity of protein-bound phenylalanine was quantified using liquid scintillation counter LS 6500 (Beckman Coulter, Fullerton, Calif.) and normalized to mg of total protein determined by BCA protein assay (Pierce Biotechnology, Rockford, Ill.).
The bioactivity of HB and its analogs was evaluated by measuring increases in protein synthesis in the L6 rat skeletal muscle cells in vitro. Cells were incubated for 4 h with [^3H]-phenylalanine and treated in triplicate with vehicle (0.1% ethanol) or test compound (10 μM), and protein synthesis was measured as incorporation of [^3H]-phenylalanine into protein normalized by total protein (Table 3). Under these conditions, both HB and (22S,23S)-homocastasterone increased protein synthesis by 37.2±5.9% (p<0.001) and 41.0±2.7% (p<0.001), respectively. This protein synthesis increase compared favorably to the biological activity of IGF-1 at 6.5 nM (42.5±4.5%, p<0.001) that served as a positive control in this assay. Removal of the 2α-hydroxyl group and fluorination at C-3 in the A ring (compound IDs 3-4 in Table 3) led to about a 50% decrease in bioactivity (24.6±5.3%, p<0.01 and 22.5±2.7%, p<0.01, respectively) compared to the positive control. However, there was still an increase in protein synthesis. […] Modifications in the side chain (compound IDs 7-9 in Table 3) abolished the activity.

L6 rat myotubes [2] = assay: Protein degradation, release of acid-soluble [3H]-phenylalanine; type: cell-based; details: 10 μM; for Protein degradation (% decrease over control): 4 h
Experimental: as §1, with “After 7-9 days of culture the myoblasts had fused into multinucleated myotubes (Mandel et al., Nature 251:618-620, 1974).” left out
In various aspects, protein degradation is measured to determine the effect of brassinosteroid on a particular protein. All known methods for measuring protein degradation are included in the methods of the disclosure. The effect of brassinosteroids on protein degradation was investigated in fully differentiated myotubes as described by Fawcett et al. (Arch. Biochem. Biophys. 385:357-363, 2001) with slight modifications. Fully differentiated myotubes were incubated for 16 h to allow labeling of cellular proteins with 1.5 μCi/mL [^3H]-phenylalanine. […] The incubation was stopped by placing the cells on ice, and protein in the medium was precipitated with 5% trichloroacetic acid. Specific radioactivity of protein-free phenylalanine was quantified using liquid scintillation counter LS 6500 (Beckman Coulter, Fullerton, Calif.) and normalized to mg of total cell protein determined by BCA protein assay (Pierce Biotechnology, Rockford, Ill.).
The bioactivity of HB and its analogs (as shown in Table 3) were also evaluated by measuring decreases in protein degradation in the L6 rat skeletal muscle cells in vitro. Cells were labeled overnight with [^3H]-phenylalanine and subsequently treated for 4 h in triplicate with vehicle (0.1% ethanol) or test compound (10 μM), and protein degradation was assessed as release of acid-soluble [^3H]-phenylalanine into the media normalized by total protein (Table 3).

[3] = system: NIH 3T3 murine fibroblast cell line; assay: Cytotoxicity, MTT assay in 3T3 fibroblasts; type: cell-based, mouse
Experimental: FIG. 9. Cell survival curves as measured by MTT assay for brassinosteroids 1-9 against the murine fibroblast cell line NIH-3T3. Cells were incubated with various concentrations of brassinosteroids (0.3-30 μM) for 24 h at 37° C. The mean absorbance of the control cells represented 100% cell proliferation, and the mean absorbance of treated cells was related to control values to determine sensitivity. Error bars represent standard error (n=6) from mean cell proliferation as determined by repeated experiments.
In various aspects, cell viability is measured and the effects of doses of compound and test reagents are tested in cell lines. In some aspects, cell viability was measured by the MTT (3-(4,5-Dimethylthiazol-2-yl)-2,5-diphenyltetrazolium bromide) assay in triplicate (Mosmann et al., J. Immunol. Methods 65:55-63, 1983) and quantified spectrophotometrically at 550 nm using a microplate reader (Molecular Devices, Sunnyvale, Calif.).
3T3 fibroblasts were seeded in a 96-well flat bottom plate at a density of 1×10^4 cells/well. Cell viability was measured by an MTT (3-(4,5-Dimethylthiazol-2-yl)-2,5-diphenyltetrazolium bromide) assay in triplicate (0.3-30 μM of test substance for […]) essentially as described by Mosmann (J. Immunol. Methods 65, 55-63, 1983) and quantified spectrophotometrically at 550 nm using a microplate reader (Molecular Devices, Sunnyvale, Calif.). […] For cell proliferation studies, cells were treated in triplicate with 0.1-10 μM of test substance for 24 h and assayed using a BrdU (5-bromo-2′-deoxyuridine) kit from Amersham (Uppsala, Sweden).

[4] = system: 3T3 Swiss fibroblast monolayers; assay: Scratch wound closure in vitro; type: cell-based, mouse; details: for Scratch wound closure at 5 μM, % of control: 12 h (Table 6); for Wound Closure (% over control): 10 μM, 12 h (Table 4)
Experimental: 3T3 fibroblasts were seeded into 24-well dishes at a concentration of 3×10^5 cells/ml and cultured to nearly confluent cell monolayers. On the day of the experiment, a linear wound was generated in the monolayer with a sterile 100 μl plastic pipette tip and any cellular debris was removed by washing cells once with sterile PBS. Fresh DMEM medium containing vehicle (0.1% ethanol), positive control (0.5% FBS), or various concentrations of the fractions, sub-fractions or pure compounds was added to a set of 3 wells per dose and incubated for 12 h at 37° C. with 5% CO2. Cells were then visualized with 20 μl of 10% methylene blue in PBS for 5 min. Three representative images of the scratched areas from each well were photographed at 0 and 12 h to estimate the scratch wound closure. Images were analyzed using ImageJ program (NIH, Bethesda, Md.) and % wound closure was calculated relative to vehicle control and was reported as wound closure % over control (Table 4). 3T3 Swiss fibroblast were seeded into 24-well tissue culture at a concentration of 3×10^5 cells/ml and cultured to nearly confluent cell monolayers. Then, a linear wound was generated in the monolayer with a sterile 100 μl plastic pipette tip. Any cellular debris was removed by washing with PBS. DMEM medium with vehicle (0.1% ethanol), FBS (1%, positive control), or various concentrations of brassinosteroids were added to a set of 3 wells per dose and incubated for 12 h at 37° C. with 5% CO2. Cells were visualized in 10% methylene blue for 5 minutes. Three representative images from each well of the scratched areas under each condition were photographed to estimate the relative migration of cells at 0 and 12 h post-treatment. Data were analyzed using ImageJ software available online from the National Institutes of Health (rsbweb.nih.gov/ij/) by calculating the percentage of scratch closure at each dose point relative to control.

[5] = system: orchiectomized (ORX) Wistar rats; type: in vivo, rat; details: ORX rats, 0.4 mg/kg subcutaneous 10 d, positive control of oral study
Experimental: Protocol 3: Four-week-old sham-operated (sham, n=6) or orchiectomized (ORX, n=24) Wistar rats (Charles River Laboratories, MA) were subject to a 10-d Hershberger assay (surgically castrated peri-pubertal adult model) under the following experimental conditions: sham, ORX (vehicle), ORX (20 mg/kg HB orally), ORX (60 mg/kg HB orally), and ORX (0.4 mg/kg testosterone propionate subcutaneously, serving as a positive control for the assay). All procedures and measurements followed protocol 1, except no body composition measurements were taken. Limb grip strength was measured for control animals and animals receiving 60 mg/kg HB using a digital force gauge (Wagner Instruments model FDV5) by Product Safety Laboratories (Dayton, N.J.). After the rats were allowed to grip the screen with paws, the animals were quickly pulled until the paws released from the screen, and the required release force was recorded. Three trials on each animal were performed in triplicate, and significance was determined using Student's t test (p<0.05). In addition to the gastrocnemius muscle, androgen-sensitive tissues (ventral prostate, seminal vesicles, bulbocavernosus/levator ani muscle complex, glans penis, and Cowper's gland) were dissected out and weighed.
The muscle samples for histochemical analysis were taken from the middle section of the mixed-fiber gastrocnemius muscle of the castrated animals treated according to protocol 4 (described herein above) to allow for the observation of differences in fiber type distribution and cross-section area associated with ORX and HB treatments. Serial transverse cryosections (10 μm) were prepared from each muscle and were analyzed for myofibrillar adenosine triphosphatase (mATPase) histochemistry after alkaline (pH=9.5) preincubation. Fiber cross-section area and enzyme activity levels were determined from digitized images of the muscle cross-sections that were stored as gray-level pictures using ImageJ software (National Institutes of Health, Bethesda, Md.). […]

[6] = system: orchiectomized (ORX) Wistar rats; assay: 10-d Hershberger assay in ORX rats, subcutaneous HB (Protocol 4); type: in vivo, rat; details: 0.4 mg/kg subcutaneous daily 10 d
Experimental: Protocol 4: Four-week-old sham-operated (sham, n=6) or orchiectomized (ORX, n=24) Wistar rats (Charles River Laboratories, MA) were subject to a 10-d Hershberger assay (surgically castrated peri-pubertal adult model) under the following experimental conditions: sham, ORX (vehicle), ORX (0.4 mg/kg HB subcutaneously), ORX (4 mg/kg HB subcutaneously), and ORX (0.4 mg/kg testosterone propionate subcutaneously, serving as a positive control for the assay). All procedures and measurements followed protocol 1. […]

Compound	Protein synthesis (% increase over control) (L6 rat myotubes [1])	Protein degradation (% decrease over control) (L6 rat myotubes [2])	IC50 [3]	cytotoxicity compared to the original brassinosteroids [3]	Scratch wound closure at 5 μM, % of control [4]	Wound Closure (% over control) [4]	effect of structural modification on activation of protein synthesis, in words (L6 rat myotubes [1])	effect of structural modification on protein degradation activity, in words (L6 rat myotubes [2])	concentration of highest scratch wound closure activity ([4]; 0.1-10 μM, 12 h (FIG. 17))	Bulbocavernosus/levator ani weight [5]	Cowper's gland weight [5]	Glans penis weight [5]	Seminal vesicles weight [5]	Ventral prostate weight [5]	Bulbocavernosus/levator ani weight [6]	Cowper's gland weight [6]	Glans penis weight [6]	Seminal vesicles weight [6]	Ventral prostate weight [6]
CC[C@@H](C(C)C)[C@H](O)[C@@H](O)[C@@H](C)[C@H]1CC[C@H]2[C@@H]3COC(=O)[C@H]4C[C@H](F)CC[C@]4(C)[C@H]3CC[C@]12C [Compound 3, (22S,23S,24S)-3α-fluoro-22,23-dihydroxy-24-ethyl-B-homo-7-oxa-5α-cholestan-6-one]	24.6±5.3%	−20.8 ± 0.5 %	~30 µM	increased cytotoxicity	15.3 ± 2.6%	15.3 ± 2.6%													
CC[C@@H](C(C)C)[C@H](O)[C@@H](O)[C@@H](C)[C@H]1CC[C@H]2[C@@H]3CNC(=O)[C@H]4C[C@H](O)[C@H](O)C[C@]4(C)[C@H]3CC[C@]12C [Compound 6, (22S,23S,24S)-2α,3α-22,23-tetrahydroxy-24-ethyl-B-homo-7-aza-5α-cholestan-6-one]	20.9 ± 2.4 %	−0.6 ± 2.9%	> 30 µM		30.5 ± 4.2 %	27.3 ± 3.6 %	reduced biological activity by half	completely abolished its effect on protein degradation	3 µM										
CCC(=O)O[C@H]1CC[C@H]2[C@@H]3CCC4=CC(=O)CC[C@]4(C)[C@H]3CC[C@]12C [testosterone propionate, reference compound]										382.0 ± 22.0 mg	34.5 ± 4.7 mg	93.8 ± 4.2 mg	262.5 ± 12.5 mg	110.50 ± 9.5 mg	293.8 ± 19.0 mg	34.3 ± 1.9 mg	72.3 ± 4.5 mg	228.7 ± 35.3 mg	92.8 ± 6.3 mg
